Reference: ChEMBL document CHEMBL5346875, “Annual review of KRAS inhibitors in 2022” (Eur J Med Chem, 2023)
Each block holds one compound with its values, some of them ahead of it.

What was measured:
NCI-H358 [1] = assay: Antiproliferative activity against human NCI-H358 cells harboring KRAS G12C mutant assessed as inhibition of cell growth; assay type: functional, cell-based
NCI-H23 = assay: Antiproliferative activity against human NCI-H23 cells harboring KRAS G12C mutant assessed as inhibition of cell growth; assay type: functional, cell-based
[2] = system: GTPase KRas (Homo sapiens), P01116 [G12S]; assay: Covalent modification of GDP-bound recombinant human KRAS G12S mutant at 10 uM incubated for 12 hrs by mass spectrometry analysis relative to control
[3] = system: GTPase KRas (Homo sapiens), P01116 [G12S]; assay: Covalent modification of GDP-bound recombinant human KRAS G12S mutant at 10 uM incubated for 1 hr by mass spectrometry analysis relative to control
NCI-H358 [4] = assay: Antiproliferative activity against human NCI-H358 cells harboring KRAS G12C mutant assessed as inhibition of cell growth by resazurin dye based assay; assay type: functional
[5] = Inhibition of ERK phosphorylation in human NCI-H358 cells harboring KRAS G12C mutant by Western blot analysis; assay type: cell-based
[6] = biological target: Protein cereblon/GTPase KRas (Homo sapiens, UniProt P01116+Q96SW2, G12C); assay: PROTAC activity at CRBN/KRAS G12C mutant in human NCI-H358 cells assessed as induction of KRAS G12C degradation; assay type: cell-based
BaF3 [7] = assay: Antiproliferative activity against mouse BaF3 cells harboring KRAS G12S mutant assessed as inhibition of cell growth incubated for 72 hrs by CellTiter-Glo luminescent assay; assay type: functional, cell-based; settings: BaF3, 72 h
[8] = Antiproliferative activity against human KMS-20 cells harboring KRAS G12S mutant assessed as inhibition of cell growth incubated for 72 hrs by CellTiter-Glo luminescent assay; assay type: functional, cell-based; settings: KMS-20, 72 h
BaF3 [9] = assay: Antiproliferative activity against mouse BaF3 cells harboring wild type KRAS assessed as inhibition of cell growth incubated for 72 hrs by CellTiter-Glo luminescent assay; assay type: functional, cell-based; settings: BaF3, 72 h
GTPase KRas = GTPase KRas (Homo sapiens, UniProt P01116, G12S); assay: Inhibition of GTP-bound KRAS G12S mutant in human A549 cells incubated for 2 hrs by immunoblot analysis; assay type: cell-based
[10] = system: GTPase KRas (Homo sapiens), P01116 [G12S]; assay: Covalent modification of GDP-bound recombinant human KRAS G12S mutant at 10 uM incubated for 10 mins by mass spectrometry analysis relative to control

GTPase KRas (Homo sapiens), P01116 [G12S], sequence (P01116 whole entry G12S): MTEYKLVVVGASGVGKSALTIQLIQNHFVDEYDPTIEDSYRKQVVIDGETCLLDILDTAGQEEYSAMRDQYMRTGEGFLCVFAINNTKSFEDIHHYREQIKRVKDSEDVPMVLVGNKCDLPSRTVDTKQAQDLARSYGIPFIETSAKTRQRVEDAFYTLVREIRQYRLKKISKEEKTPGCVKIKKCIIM
GTPase KRas, sequence (P01116 whole entry G12S): as above
Protein cereblon/GTPase KRas, sequence (P01116 whole entry G12C, stated change not applied): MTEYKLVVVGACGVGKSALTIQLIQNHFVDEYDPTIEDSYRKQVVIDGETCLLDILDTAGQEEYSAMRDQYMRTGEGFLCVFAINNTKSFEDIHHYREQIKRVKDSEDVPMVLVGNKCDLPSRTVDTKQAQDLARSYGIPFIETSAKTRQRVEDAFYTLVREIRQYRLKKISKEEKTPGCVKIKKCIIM
Protein cereblon/GTPase KRas, sequence (Q96SW2 whole entry, stated change not applied): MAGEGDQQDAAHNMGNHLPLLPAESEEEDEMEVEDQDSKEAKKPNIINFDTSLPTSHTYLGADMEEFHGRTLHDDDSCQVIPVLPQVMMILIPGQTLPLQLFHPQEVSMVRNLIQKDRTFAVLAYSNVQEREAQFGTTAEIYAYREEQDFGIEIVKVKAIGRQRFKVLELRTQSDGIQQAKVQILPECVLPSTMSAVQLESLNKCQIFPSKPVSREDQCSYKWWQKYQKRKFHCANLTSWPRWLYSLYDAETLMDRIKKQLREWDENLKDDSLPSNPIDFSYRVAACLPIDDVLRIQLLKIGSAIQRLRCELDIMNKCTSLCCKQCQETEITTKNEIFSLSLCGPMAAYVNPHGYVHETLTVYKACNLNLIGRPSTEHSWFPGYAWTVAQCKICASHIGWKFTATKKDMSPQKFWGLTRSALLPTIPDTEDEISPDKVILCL

Structure (SMILES): C=C(C(=O)N1CCN(c2ncnc3c(F)c(-c4cc(Cl)ccc4OC)c(Cl)cc23)[C@H](C)C1)C(F)(F)F
IC50 (NCI-H358 [1]): 780 nM
IC50 (NCI-H23): 1550 nM

Structure (SMILES): C=CC(=O)N1CC2(CC(n3nc(-c4ccc5c(cnn5C)c4)c(-c4c(Cl)c(C)cc5[nH]ncc45)c3C)C2)C1 [OPNURASIB]
IC50 (NCI-H358 [4]): 19 nM
IC50 [5]: 18 nM

Structure (SMILES): COc1cc(Cl)c(-c2cc(Cl)ccc2Cl)cc1C(=O)N1CCN(C(=O)/C=C\C(=O)NCCCCCCNc2cccc3c2C(=O)N(C2CCC(=O)NC2=O)C3=O)CC1 (stereo not drawn)
IC50 (NCI-H358 [1]): 17400 nM
DC50 [6]: 1250 nM

Further lines, with some results ahead:

Activity [2]: 100%
Activity [3]: 64%
Structure (SMILES): CN1CCC[C@H]1COc1nc2c(c(N3CCC4C(=O)OC4C3)n1)CCN(c1cccc3cccc(Cl)c13)C2 (stereo partly drawn)

IC50 (BaF3 [7]): 2400 nM
IC50 (BaF3 [9]): 12500 nM
IC50 (GTPase KRas): 3000 nM
Activity [10]: 100%
Structure (SMILES): O=C1O[C@H]2CN(c3nc(OCC45CCCN4CCC5)nc4c(F)c(-c5cccc6cccc(Cl)c56)ncc34)CC[C@@H]12
IC50 [8]: 7500 nM
